The values that follow come from the kinase profiling compilation of Christmann-Franck et al. (2016).

The first assay deals with RPS6KA1 KD1 KD2 (human) (UniProt Q15418). Description: radiometric filter-binding kinase assay, Kinase HotSpot. Particulars: compound 0.5 µM; ATP 10 µM.
By residual activity is commonly meant the signal under treatment as a percentage of the control signal. With `CCN(CC)CCNC(=O)c1c(C)[nH]c(/C=C2\C(=O)Nc3ccc(Cl)cc32)c1C`, the residual activity is 13.1%.
Still for that read-out and setting: the figure for `Nc1ncnc2[nH]nc(Nc3ccc(F)cc3)c12` is 82.2%.
The same measure, in the same setting: the figure for `CNc1cc2c(Nc3cccc(Br)c3)ncnc2cn1` is 90.9%.

A further assay concerns the target ULK2 (human) (UniProt Q8IYT8). The assay is described as above. The settings on record: compound 0.5 µM; ATP 10 µM.
On to `CCN(CC)CCNC(=O)c1c(C)[nH]c(/C=C2\C(=O)Nc3ccc(Cl)cc32)c1C`, for which the residual activity was found to be 43%.
On to `Nc1ncnc2[nH]nc(Nc3ccc(F)cc3)c12`, for which the residual activity worked out at 110%.
The same measure, in the same setting: with `CNc1cc2c(Nc3cccc(Br)c3)ncnc2cn1` the figure was 119%.

The target of another assay is MAP4K5 (human) (UniProt Q9Y4K4). Described as above. Particulars: compound 0.5 µM; ATP 10 µM.
MAP4K5 (human), sequence (Q9Y4K4 whole entry, looked up): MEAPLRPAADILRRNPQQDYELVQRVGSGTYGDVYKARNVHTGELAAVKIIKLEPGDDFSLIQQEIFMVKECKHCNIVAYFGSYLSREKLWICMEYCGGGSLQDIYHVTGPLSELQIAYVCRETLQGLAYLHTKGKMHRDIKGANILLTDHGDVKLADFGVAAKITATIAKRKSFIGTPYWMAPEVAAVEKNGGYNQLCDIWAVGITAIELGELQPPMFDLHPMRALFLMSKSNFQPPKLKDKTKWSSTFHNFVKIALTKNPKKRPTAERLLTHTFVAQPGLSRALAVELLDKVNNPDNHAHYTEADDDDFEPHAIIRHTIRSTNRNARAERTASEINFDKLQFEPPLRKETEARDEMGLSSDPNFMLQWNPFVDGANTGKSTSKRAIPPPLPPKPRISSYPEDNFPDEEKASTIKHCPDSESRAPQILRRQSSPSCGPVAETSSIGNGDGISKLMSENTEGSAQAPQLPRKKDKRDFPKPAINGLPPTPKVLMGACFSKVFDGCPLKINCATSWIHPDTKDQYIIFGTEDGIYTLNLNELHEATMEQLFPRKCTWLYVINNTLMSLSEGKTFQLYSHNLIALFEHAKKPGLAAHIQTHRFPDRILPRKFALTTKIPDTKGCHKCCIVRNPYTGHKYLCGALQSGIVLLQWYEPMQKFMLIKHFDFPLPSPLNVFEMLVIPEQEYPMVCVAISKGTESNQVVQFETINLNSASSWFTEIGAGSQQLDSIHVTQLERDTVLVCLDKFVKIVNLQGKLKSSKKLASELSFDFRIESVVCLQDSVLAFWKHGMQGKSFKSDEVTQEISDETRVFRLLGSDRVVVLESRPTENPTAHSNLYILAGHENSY
With `CCN(CC)CCNC(=O)c1c(C)[nH]c(/C=C2\C(=O)Nc3ccc(Cl)cc32)c1C`, the residual activity amounted to 0.833%.
For `Nc1ncnc2[nH]nc(Nc3ccc(F)cc3)c12`, the residual activity stood at 52%.
Same read-out and setting: with `CNc1cc2c(Nc3cccc(Br)c3)ncnc2cn1` the figure was 77.1%.

The target in a further assay is PAK2 (human) (UniProt Q13177). The assay is described as above. Particulars: compound 0.5 µM; ATP 10 µM.
PAK2 (human), sequence (Q13177 whole entry, looked up): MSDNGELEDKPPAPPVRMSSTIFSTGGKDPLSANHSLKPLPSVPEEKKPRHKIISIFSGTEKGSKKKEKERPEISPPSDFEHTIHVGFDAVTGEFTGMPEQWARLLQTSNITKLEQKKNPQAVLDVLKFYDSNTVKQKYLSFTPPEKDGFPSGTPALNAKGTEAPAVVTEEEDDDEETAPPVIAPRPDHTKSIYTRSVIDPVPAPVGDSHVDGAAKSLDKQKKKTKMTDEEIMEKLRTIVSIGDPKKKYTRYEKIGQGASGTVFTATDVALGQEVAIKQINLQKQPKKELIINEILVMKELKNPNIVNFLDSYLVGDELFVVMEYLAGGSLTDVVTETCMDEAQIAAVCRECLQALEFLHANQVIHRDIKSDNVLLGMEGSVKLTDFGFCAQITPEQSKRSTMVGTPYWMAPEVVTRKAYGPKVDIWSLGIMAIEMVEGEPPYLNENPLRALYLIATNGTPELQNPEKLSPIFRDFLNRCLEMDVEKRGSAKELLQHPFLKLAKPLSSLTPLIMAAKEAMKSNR
`CCN(CC)CCNC(=O)c1c(C)[nH]c(/C=C2\C(=O)Nc3ccc(Cl)cc32)c1C`: the residual activity was 92.7%.
Same read-out and setting: the figure for `Nc1ncnc2[nH]nc(Nc3ccc(F)cc3)c12` is 103%; for `CNc1cc2c(Nc3cccc(Br)c3)ncnc2cn1` it is 92.7%.

The target in another assay is TXK (human) (UniProt P42681). The assay is described as above. The settings on record: compound 0.5 µM; ATP 10 µM.
Consider `CCN(CC)CCNC(=O)c1c(C)[nH]c(/C=C2\C(=O)Nc3ccc(Cl)cc32)c1C`, for which the residual activity came out at 79.5%.
For `Nc1ncnc2[nH]nc(Nc3ccc(F)cc3)c12`, the residual activity came to 67.6%.
With `CNc1cc2c(Nc3cccc(Br)c3)ncnc2cn1`, the residual activity came to 79.9%.

The next assay concerns the target EPHA2 (human) (UniProt P29317). The description is as above. Particulars: compound 0.5 µM; ATP 10 µM.
Turning to `CCN(CC)CCNC(=O)c1c(C)[nH]c(/C=C2\C(=O)Nc3ccc(Cl)cc32)c1C`, the residual activity was determined as 93.5%.
`Nc1ncnc2[nH]nc(Nc3ccc(F)cc3)c12`: the residual activity came to 89.9%.
On the same count and under the same terms, the figure for `CNc1cc2c(Nc3cccc(Br)c3)ncnc2cn1` is 95.3%.

The target in a further assay is AKT1 (human) (UniProt P31749). The description is as above. The settings on record: compound 0.5 µM; ATP 10 µM.
AKT1 (human), sequence (P31749 whole entry, looked up): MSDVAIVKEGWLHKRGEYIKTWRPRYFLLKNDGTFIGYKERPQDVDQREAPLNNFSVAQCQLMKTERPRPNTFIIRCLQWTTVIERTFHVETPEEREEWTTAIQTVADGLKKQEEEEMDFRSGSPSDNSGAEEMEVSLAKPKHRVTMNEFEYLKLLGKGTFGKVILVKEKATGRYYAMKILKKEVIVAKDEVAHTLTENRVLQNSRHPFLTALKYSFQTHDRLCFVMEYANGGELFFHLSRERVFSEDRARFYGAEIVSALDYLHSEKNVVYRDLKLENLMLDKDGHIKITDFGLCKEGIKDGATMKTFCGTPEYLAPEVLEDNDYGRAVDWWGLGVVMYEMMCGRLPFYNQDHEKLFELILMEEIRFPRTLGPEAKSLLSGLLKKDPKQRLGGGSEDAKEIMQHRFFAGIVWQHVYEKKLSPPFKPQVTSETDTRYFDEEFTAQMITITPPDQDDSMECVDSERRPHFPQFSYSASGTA
As for `CCN(CC)CCNC(=O)c1c(C)[nH]c(/C=C2\C(=O)Nc3ccc(Cl)cc32)c1C`, the residual activity worked out at 102%.
On to `Nc1ncnc2[nH]nc(Nc3ccc(F)cc3)c12`, for which the residual activity is 93.3%.
On the same count and under the same terms, with `CNc1cc2c(Nc3cccc(Br)c3)ncnc2cn1` the figure was 98.8%.

In a further assay the target is MAP3K3 (human) (UniProt Q99759). The assay is described as above. Particulars: compound 0.5 µM; ATP 10 µM.
On to `CCN(CC)CCNC(=O)c1c(C)[nH]c(/C=C2\C(=O)Nc3ccc(Cl)cc32)c1C`, for which the residual activity was 30.6%.
Turning to `Nc1ncnc2[nH]nc(Nc3ccc(F)cc3)c12`, the residual activity worked out at 87.6%.
Still for that read-out and setting: with `CNc1cc2c(Nc3cccc(Br)c3)ncnc2cn1` the figure was 73.3%.

The next assay concerns the target WNK3 (human) (UniProt Q9BYP7). The description is as above. Particulars: compound 0.5 µM; ATP 10 µM.
Consider `CCN(CC)CCNC(=O)c1c(C)[nH]c(/C=C2\C(=O)Nc3ccc(Cl)cc32)c1C`, for which the residual activity is 86.3%.
The same measure, in the same setting: with `Nc1ncnc2[nH]nc(Nc3ccc(F)cc3)c12` the figure was 103%; with `CNc1cc2c(Nc3cccc(Br)c3)ncnc2cn1`, 97.4%.

The target of another assay is PRKX (human) (UniProt P51817). The description is as above. The settings on record: compound 0.5 µM; ATP 10 µM.
PRKX (human), sequence (P51817 whole entry, looked up): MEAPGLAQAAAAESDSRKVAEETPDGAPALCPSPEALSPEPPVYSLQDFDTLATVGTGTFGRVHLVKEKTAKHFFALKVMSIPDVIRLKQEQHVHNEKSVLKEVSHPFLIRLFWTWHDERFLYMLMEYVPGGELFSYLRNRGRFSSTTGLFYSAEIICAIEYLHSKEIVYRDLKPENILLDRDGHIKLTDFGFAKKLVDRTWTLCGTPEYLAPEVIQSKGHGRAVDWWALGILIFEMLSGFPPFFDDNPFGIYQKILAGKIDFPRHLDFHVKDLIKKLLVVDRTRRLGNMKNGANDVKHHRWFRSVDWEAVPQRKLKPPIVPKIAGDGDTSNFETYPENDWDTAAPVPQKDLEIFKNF
`CCN(CC)CCNC(=O)c1c(C)[nH]c(/C=C2\C(=O)Nc3ccc(Cl)cc32)c1C`: the residual activity was 83.9%.
Same read-out and setting: the figure for `Nc1ncnc2[nH]nc(Nc3ccc(F)cc3)c12` is 90.4%; for `CNc1cc2c(Nc3cccc(Br)c3)ncnc2cn1` it is 97.1%.

In another assay the target is ALK (human) (UniProt Q9UM73). Described as above. The settings on record: compound 0.5 µM; ATP 10 µM.
ALK (human), sequence (Q9UM73 whole entry, looked up): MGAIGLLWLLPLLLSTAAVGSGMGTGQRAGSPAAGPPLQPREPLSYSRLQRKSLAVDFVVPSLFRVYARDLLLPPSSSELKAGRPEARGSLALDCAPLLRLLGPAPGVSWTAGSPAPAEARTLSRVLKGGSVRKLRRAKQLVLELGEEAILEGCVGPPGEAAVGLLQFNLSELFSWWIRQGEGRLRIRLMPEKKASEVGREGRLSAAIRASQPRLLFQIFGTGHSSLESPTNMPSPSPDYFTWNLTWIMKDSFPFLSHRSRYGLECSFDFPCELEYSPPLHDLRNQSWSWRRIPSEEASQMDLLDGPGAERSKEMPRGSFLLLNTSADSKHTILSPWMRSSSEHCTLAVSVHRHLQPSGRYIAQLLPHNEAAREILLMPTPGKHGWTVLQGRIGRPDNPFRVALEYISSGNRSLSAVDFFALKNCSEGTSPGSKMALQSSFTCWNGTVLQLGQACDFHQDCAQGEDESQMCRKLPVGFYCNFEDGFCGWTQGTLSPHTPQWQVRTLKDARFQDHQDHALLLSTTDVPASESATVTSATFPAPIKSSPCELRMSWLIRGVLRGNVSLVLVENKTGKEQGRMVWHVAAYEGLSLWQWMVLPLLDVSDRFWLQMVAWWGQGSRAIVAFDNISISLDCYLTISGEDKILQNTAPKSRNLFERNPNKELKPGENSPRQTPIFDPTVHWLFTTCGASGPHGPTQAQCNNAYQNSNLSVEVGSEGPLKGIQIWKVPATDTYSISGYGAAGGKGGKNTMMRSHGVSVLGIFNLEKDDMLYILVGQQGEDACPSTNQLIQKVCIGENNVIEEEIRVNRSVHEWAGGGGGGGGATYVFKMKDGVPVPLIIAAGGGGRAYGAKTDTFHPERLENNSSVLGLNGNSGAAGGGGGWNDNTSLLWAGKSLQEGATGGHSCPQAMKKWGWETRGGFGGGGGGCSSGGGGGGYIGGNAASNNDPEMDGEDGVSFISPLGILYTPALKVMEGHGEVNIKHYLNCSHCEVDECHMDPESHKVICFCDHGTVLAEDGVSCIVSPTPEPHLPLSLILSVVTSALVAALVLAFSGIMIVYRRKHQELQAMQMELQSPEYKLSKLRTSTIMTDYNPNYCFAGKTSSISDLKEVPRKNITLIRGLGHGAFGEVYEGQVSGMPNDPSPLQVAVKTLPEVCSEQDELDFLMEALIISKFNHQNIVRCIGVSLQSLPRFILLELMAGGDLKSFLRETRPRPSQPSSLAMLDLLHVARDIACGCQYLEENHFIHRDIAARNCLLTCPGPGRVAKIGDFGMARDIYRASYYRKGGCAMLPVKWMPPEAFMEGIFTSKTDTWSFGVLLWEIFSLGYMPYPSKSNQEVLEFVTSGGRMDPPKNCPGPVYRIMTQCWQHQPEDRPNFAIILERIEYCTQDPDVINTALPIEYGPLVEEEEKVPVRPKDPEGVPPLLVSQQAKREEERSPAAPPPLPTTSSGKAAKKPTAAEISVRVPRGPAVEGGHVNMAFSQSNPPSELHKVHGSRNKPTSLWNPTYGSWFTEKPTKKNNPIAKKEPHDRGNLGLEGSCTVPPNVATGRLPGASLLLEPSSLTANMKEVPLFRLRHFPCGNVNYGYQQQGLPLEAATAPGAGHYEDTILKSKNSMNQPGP
Take `CCN(CC)CCNC(=O)c1c(C)[nH]c(/C=C2\C(=O)Nc3ccc(Cl)cc32)c1C`: the residual activity stood at 3.45%.
Turning to `Nc1ncnc2[nH]nc(Nc3ccc(F)cc3)c12`, the residual activity was found to be 88.9%.
On the same count and under the same terms, with `CNc1cc2c(Nc3cccc(Br)c3)ncnc2cn1` the figure was 82%.

A further assay addresses TEK (human) (UniProt Q02763). The description is as above. Particulars: compound 0.5 µM; ATP 10 µM.
As to `CCN(CC)CCNC(=O)c1c(C)[nH]c(/C=C2\C(=O)Nc3ccc(Cl)cc32)c1C`, the residual activity is 98.2%.
On the same count and under the same terms, the figure for `Nc1ncnc2[nH]nc(Nc3ccc(F)cc3)c12` is 94.9%; for `CNc1cc2c(Nc3cccc(Br)c3)ncnc2cn1` it is 87.9%.

Another assay has as its target PRKCB1 (human) (UniProt P05771). The assay is described as above. The settings on record: compound 0.5 µM; ATP 10 µM.
For `CCN(CC)CCNC(=O)c1c(C)[nH]c(/C=C2\C(=O)Nc3ccc(Cl)cc32)c1C`, the residual activity is 98.1%.
Still for that read-out and setting: with `Nc1ncnc2[nH]nc(Nc3ccc(F)cc3)c12` the figure was 95.9%.
In the case of `CNc1cc2c(Nc3cccc(Br)c3)ncnc2cn1`, the residual activity amounted to 95.3%.

For another assay, the target named is DYRK3 (human) (UniProt O43781). The description is as above. The settings on record: compound 0.5 µM; ATP 10 µM.
DYRK3 (human), sequence (O43781 whole entry, looked up): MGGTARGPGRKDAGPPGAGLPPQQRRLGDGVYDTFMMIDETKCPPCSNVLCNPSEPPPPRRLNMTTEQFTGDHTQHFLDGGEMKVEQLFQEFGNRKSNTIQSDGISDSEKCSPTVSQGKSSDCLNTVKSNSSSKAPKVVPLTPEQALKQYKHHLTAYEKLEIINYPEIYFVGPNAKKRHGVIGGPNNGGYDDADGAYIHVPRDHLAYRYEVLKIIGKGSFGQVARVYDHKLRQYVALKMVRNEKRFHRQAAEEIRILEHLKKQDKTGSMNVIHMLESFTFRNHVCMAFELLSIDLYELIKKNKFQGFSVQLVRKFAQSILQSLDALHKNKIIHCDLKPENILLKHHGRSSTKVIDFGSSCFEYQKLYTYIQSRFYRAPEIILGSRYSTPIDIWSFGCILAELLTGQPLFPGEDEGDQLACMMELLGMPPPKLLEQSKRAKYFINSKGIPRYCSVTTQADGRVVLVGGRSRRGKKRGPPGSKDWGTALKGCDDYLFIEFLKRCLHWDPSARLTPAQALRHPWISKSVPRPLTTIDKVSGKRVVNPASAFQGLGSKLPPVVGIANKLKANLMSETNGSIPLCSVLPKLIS
Take `CCN(CC)CCNC(=O)c1c(C)[nH]c(/C=C2\C(=O)Nc3ccc(Cl)cc32)c1C`: the residual activity turned out to be 81.8%.
Still for that read-out and setting: with `Nc1ncnc2[nH]nc(Nc3ccc(F)cc3)c12` the figure was 89%; with `CNc1cc2c(Nc3cccc(Br)c3)ncnc2cn1`, 84.4%.

The target in the next assay is RPS6KA5 KD2 (human) (UniProt O75582). The assay is described as above. The settings on record: compound 0.5 µM; ATP 10 µM.
`CCN(CC)CCNC(=O)c1c(C)[nH]c(/C=C2\C(=O)Nc3ccc(Cl)cc32)c1C`: the residual activity is 59%.
For `Nc1ncnc2[nH]nc(Nc3ccc(F)cc3)c12`, the residual activity is 96.7%.
The same measure, in the same setting: with `CNc1cc2c(Nc3cccc(Br)c3)ncnc2cn1` the figure was 92.3%.

A further assay deals with JAK1 JH1 catalytic (human) (UniProt P23458). Described as above. Particulars: compound 0.5 µM; ATP 10 µM.
With `CCN(CC)CCNC(=O)c1c(C)[nH]c(/C=C2\C(=O)Nc3ccc(Cl)cc32)c1C`, the residual activity stood at 65.8%.
Same read-out and setting: with `Nc1ncnc2[nH]nc(Nc3ccc(F)cc3)c12` the figure was 99%.
Still for that read-out and setting: with `CNc1cc2c(Nc3cccc(Br)c3)ncnc2cn1` the figure was 79.9%.

The target of another assay is ACVRL1 (human) (UniProt P37023). The assay is described as above. Particulars: compound 0.5 µM; ATP 10 µM.
Regarding `CCN(CC)CCNC(=O)c1c(C)[nH]c(/C=C2\C(=O)Nc3ccc(Cl)cc32)c1C`, the residual activity worked out at 89%.
On the same count and under the same terms, the figure for `Nc1ncnc2[nH]nc(Nc3ccc(F)cc3)c12` is 108%; for `CNc1cc2c(Nc3cccc(Br)c3)ncnc2cn1` it is 90.6%.

A further assay deals with CAMK4 (human) (UniProt Q16566). The assay is described as above. The settings on record: compound 0.5 µM; ATP 10 µM.
Turning to `CCN(CC)CCNC(=O)c1c(C)[nH]c(/C=C2\C(=O)Nc3ccc(Cl)cc32)c1C`, the residual activity is 95%.
Consider `Nc1ncnc2[nH]nc(Nc3ccc(F)cc3)c12`, for which the residual activity was found to be 103%.
Same read-out and setting: with `CNc1cc2c(Nc3cccc(Br)c3)ncnc2cn1` the figure was 104%.

The target in the next assay is CDK2 CCNA2 (human) (UniProt P24941+P20248). Described as above. Particulars: compound 0.5 µM; ATP 10 µM.
On to `CCN(CC)CCNC(=O)c1c(C)[nH]c(/C=C2\C(=O)Nc3ccc(Cl)cc32)c1C`, for which the residual activity stood at 92.8%.
The same measure, in the same setting: with `Nc1ncnc2[nH]nc(Nc3ccc(F)cc3)c12` the figure was 88.7%; with `CNc1cc2c(Nc3cccc(Br)c3)ncnc2cn1`, 106%.

A further assay deals with STK17A (human) (UniProt Q9UEE5). The assay is described as above. Particulars: compound 0.5 µM; ATP 10 µM.
STK17A (human), sequence (Q9UEE5 whole entry, looked up): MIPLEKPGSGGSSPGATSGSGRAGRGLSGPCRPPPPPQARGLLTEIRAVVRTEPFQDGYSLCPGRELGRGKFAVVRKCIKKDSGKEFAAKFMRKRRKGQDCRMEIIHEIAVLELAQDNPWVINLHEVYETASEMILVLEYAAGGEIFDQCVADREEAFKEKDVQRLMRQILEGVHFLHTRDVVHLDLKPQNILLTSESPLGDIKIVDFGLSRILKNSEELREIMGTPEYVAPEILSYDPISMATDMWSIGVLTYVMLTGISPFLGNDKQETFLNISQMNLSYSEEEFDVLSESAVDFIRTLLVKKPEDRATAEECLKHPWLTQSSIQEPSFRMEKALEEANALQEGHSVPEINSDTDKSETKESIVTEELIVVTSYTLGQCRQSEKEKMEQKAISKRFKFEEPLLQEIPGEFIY
`CCN(CC)CCNC(=O)c1c(C)[nH]c(/C=C2\C(=O)Nc3ccc(Cl)cc32)c1C`: the residual activity was found to be 16.1%.
As to `Nc1ncnc2[nH]nc(Nc3ccc(F)cc3)c12`, the residual activity is 88.1%.
On to `CNc1cc2c(Nc3cccc(Br)c3)ncnc2cn1`, for which the residual activity worked out at 98.4%.

The target of the next assay is FGFR4 (human) (UniProt P22455). Described as above. The settings on record: compound 0.5 µM; ATP 10 µM.
On to `CCN(CC)CCNC(=O)c1c(C)[nH]c(/C=C2\C(=O)Nc3ccc(Cl)cc32)c1C`, for which the residual activity stood at 70.5%.
Same read-out and setting: with `Nc1ncnc2[nH]nc(Nc3ccc(F)cc3)c12` the figure was 107%.
As to `CNc1cc2c(Nc3cccc(Br)c3)ncnc2cn1`, the residual activity is 93.7%.
